Experiments:
Type in all cases: functional
[1] = test system: SK-OV-3; experiment: Cytotoxicity against human SKOV3 cells assessed as growth inhibition at 10 uM after 48 hrs by coulter counter analysis; details: SK-OV-3, 48 h, read-out: GI
[2] = test system: NCI-H322M; experiment: Cytotoxicity against human NCI-H322M cells assessed as growth inhibition at 10 uM after 48 hrs by coulter counter analysis; details: read-out: GI
[3] = test system: OVCAR-4; experiment: Cytotoxicity against human OVCAR4 cells assessed as growth inhibition at 10 uM after 48 hrs by coulter counter analysis; details: OVCAR-4, 48 h, read-out: GI
[4] = test system: Malme-3M; experiment: Cytotoxicity against human MALME-3M cells assessed as growth inhibition at 10 uM after 48 hrs by coulter counter analysis; details: read-out: GI
[5] = test system: Hs-578T; experiment: Cytotoxicity against human Hs578T cells assessed as growth inhibition at 10 uM after 48 hrs by coulter counter analysis; details: read-out: GI
[6] = test system: BT-549; experiment: Cytotoxicity against human BT549 cells assessed as growth inhibition at 10 uM after 48 hrs by coulter counter analysis; details: BT-549, 48 h, read-out: GI
[7] = test system: TK-10; experiment: Cytotoxicity against human TK10 cells assessed as growth inhibition at 10 uM after 48 hrs by coulter counter analysis; details: TK-10, 48 h, read-out: GI
[8] = test system: HOP-62; experiment: Cytotoxicity against human HOP62 cells assessed as growth inhibition at 10 uM after 48 hrs by coulter counter analysis; details: HOP-62, 48 h, read-out: GI
[9] = test system: OVCAR-8; experiment: Cytotoxicity against human OVCAR8 cells assessed as growth inhibition at 10 uM after 48 hrs by coulter counter analysis; details: OVCAR-8, 48 h, read-out: GI
[10] = test system: PC-3; experiment: Cytotoxicity against human PC3 cells assessed as growth inhibition at 10 uM after 48 hrs by coulter counter analysis; details: PC-3, 48 h, read-out: GI
[11] = test system: A498; experiment: Cytotoxicity against human A498 cells assessed as growth inhibition at 10 uM after 48 hrs by coulter counter analysis; details: A498, 48 h, read-out: GI
[12] = test system: OVCAR-5; experiment: Cytotoxicity against human OVCAR5 cells assessed as growth inhibition at 10 uM after 48 hrs by coulter counter analysis; details: OVCAR-5, 48 h, read-out: GI
[13] = test system: MDA-MB-435; experiment: Cytotoxicity against human MDA-MB-435 cells assessed as growth inhibition at 10 uM after 48 hrs by coulter counter analysis; details: MDA-MB-435, 48 h, read-out: GI
[14] = test system: T47D; experiment: Cytotoxicity against human T47D cells assessed as growth inhibition at 10 uM after 48 hrs by coulter counter analysis; details: read-out: GI
[15] = test system: DU-145; experiment: Cytotoxicity against human DU145 cells assessed as growth inhibition at 10 uM after 48 hrs by coulter counter analysis; details: DU-145, 48 h, read-out: GI
[16] = test system: A549; experiment: Cytotoxicity against human A549 cells assessed as growth inhibition at 10 uM after 48 hrs by coulter counter analysis; details: A549, 48 h, read-out: GI
[17] = test system: SW-620; experiment: Cytotoxicity against human SW620 cells assessed as growth inhibition at 10 uM after 48 hrs by coulter counter analysis; details: SW-620, 48 h, read-out: GI
[18] = test system: HCT-15; experiment: Cytotoxicity against human HCT15 cells assessed as growth inhibition at 10 uM after 48 hrs by coulter counter analysis; details: HCT-15, 48 h, read-out: GI
[19] = test system: M14; experiment: Cytotoxicity against human M14 cells assessed as growth inhibition at 10 uM after 48 hrs by coulter counter analysis; details: M14, 48 h, read-out: GI
[20] = test system: OVCAR-3; experiment: Cytotoxicity against human OVCAR3 cells assessed as growth inhibition at 10 uM after 48 hrs by coulter counter analysis; details: OVCAR-3, 48 h, read-out: GI
[21] = Cytotoxicity against human NCI-ADR-RES cells assessed as growth inhibition at 10 uM after 48 hrs by coulter counter analysis; details: read-out: GI
[22] = test system: KM12; experiment: Cytotoxicity against human KM12 cells assessed as growth inhibition at 10 uM after 48 hrs by coulter counter analysis; details: KM12, 48 h, read-out: GI
[23] = test system: SN12C; experiment: Cytotoxicity against human SN12C cells assessed as growth inhibition at 10 uM after 48 hrs by coulter counter analysis; details: read-out: GI
[24] = test system: MDA-MB-468; experiment: Cytotoxicity against human MDA-MB-468 cells assessed as growth inhibition at 10 uM after 48 hrs by coulter counter analysis; details: MDA-MB-468, 48 h, read-out: GI
[25] = test system: COLO 205; experiment: Cytotoxicity against human COLO205 cells assessed as growth inhibition at 10 uM after 48 hrs by coulter counter analysis; details: COLO 205, 48 h, read-out: GI
[26] = Cytotoxicity against human EKVX cells assessed as growth inhibition at 10 uM after 48 hrs by coulter counter analysis; details: read-out: GI
[27] = test system: CAKI-1; experiment: Cytotoxicity against human Caki1 cells assessed as growth inhibition at 10 uM after 48 hrs by coulter counter analysis; details: CAKI-1, 48 h, read-out: GI
[28] = test system: NCI-H460; experiment: Cytotoxicity against human NCI-H460 cells assessed as growth inhibition at 10 uM after 48 hrs by coulter counter analysis; details: NCI-H460, 48 h, read-out: GI
[29] = test system: HCC 2998; experiment: Cytotoxicity against human HCC2998 cells assessed as growth inhibition at 10 uM after 48 hrs by coulter counter analysis; details: HCC 2998, 48 h, read-out: GI
[30] = test system: U-251; experiment: Cytotoxicity against human U251 cells assessed as growth inhibition at 10 uM after 48 hrs by coulter counter analysis; details: U-251, 48 h, read-out: GI
[31] = test system: HCT-116; experiment: Cytotoxicity against human HCT116 cells assessed as growth inhibition at 10 uM after 48 hrs by coulter counter analysis; details: HCT-116, 48 h, read-out: GI
[32] = test system: SNB-19; experiment: Cytotoxicity against human SNB19 cells assessed as growth inhibition at 10 uM after 48 hrs by coulter counter analysis; details: SNB-19, 48 h, read-out: GI
[33] = test system: SK-MEL-5; experiment: Cytotoxicity against human SK-MEL-5 cells assessed as growth inhibition at 10 uM after 48 hrs by coulter counter analysis; details: SK-MEL-5, 48 h, read-out: GI
[34] = test system: SF-295; experiment: Cytotoxicity against human SF295 cells assessed as growth inhibition at 10 uM after 48 hrs by coulter counter analysis; details: SF-295, 48 h, read-out: GI
[35] = test system: SK-MEL-28; experiment: Cytotoxicity against human SK-MEL-28 cells assessed as growth inhibition at 10 uM after 48 hrs by coulter counter analysis; details: SK-MEL-28, 48 h, read-out: GI
[36] = test system: UO-31; experiment: Cytotoxicity against human UO31 cells assessed as growth inhibition at 10 uM after 48 hrs by coulter counter analysis; details: UO-31, 48 h, read-out: GI
[37] = test system: ACHN; experiment: Cytotoxicity against human ACHN cells assessed as growth inhibition at 10 uM after 48 hrs by coulter counter analysis; details: read-out: GI
[38] = test system: UACC-62; experiment: Cytotoxicity against human UACC62 cells assessed as growth inhibition at 10 uM after 48 hrs by coulter counter analysis; details: UACC-62, 48 h, read-out: GI
[39] = test system: HT-29; experiment: Cytotoxicity against human HT-29 cells assessed as growth inhibition at 10 uM after 48 hrs by coulter counter analysis; details: HT-29, 48 h, read-out: GI
[40] = test system: RXF 393; experiment: Cytotoxicity against human RXF393 cells assessed as growth inhibition at 10 uM after 48 hrs by coulter counter analysis; details: RXF 393, 48 h, read-out: GI
[41] = test system: NCI-H23; experiment: Cytotoxicity against human NCI-H23 cells assessed as growth inhibition at 10 uM after 48 hrs by coulter counter analysis; details: NCI-H23, 48 h, read-out: GI
[42] = test system: SF-539; experiment: Cytotoxicity against human SF539 cells assessed as growth inhibition at 10 uM after 48 hrs by coulter counter analysis; details: SF-539, 48 h, read-out: GI
[43] = test system: MDA-MB-231; experiment: Cytotoxicity against human MDA-MB-231 cells assessed as growth inhibition at 10 uM after 48 hrs by coulter counter analysis; details: MDA-MB-231, 48 h, read-out: GI
[44] = test system: SNB-75; experiment: Cytotoxicity against human SNB75 cells assessed as growth inhibition at 10 uM after 48 hrs by coulter counter analysis; details: SNB-75, 48 h, read-out: GI
[45] = test system: UACC-257; experiment: Cytotoxicity against human UACC257 cells assessed as growth inhibition at 10 uM after 48 hrs by coulter counter analysis; details: UACC-257, 48 h, read-out: GI

Measured: inhibition of growth at 10 µM

NC(=O)CSc1nc2ccccc2c(=O)n1CCc1ccccc1
34%: [37]
12%: [16] | [27]
10%: [26]
< 10%: all other assays above

Reference: ChEMBL document CHEMBL2396621, “Design, synthesis and biological evaluation of 2-mercapto-3-phenethylquinazoline bearing anilide fragments as potential antitumor agents: molecular docking study” (2013)
